Test results from patent publication US12304890B2, “R-type pyridyloxycarboxylic acid, salt and ester derivative thereof, and preparation method therefor, and herbicidal composition and application thereof” (Qingdao Kingagroot Chemical Compound Co., Ltd., priority 2018, dated 2025).

Columns and labels:
Assay type in all cases: in vivo
[1] = tested on: Monocotyledonous and dicotyledonous weed seeds and main crop seeds; test: Post-emergence test experiment, other weeds and crops (Table 4, 1000 g a.i./ha); settings: 3 weeks in greenhouse, fresh weight inhibition
Procedure, shortened: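 Weed and crop seeds (wheat, corn, rice, soybean, cotton, oilseed, millet, sorghum) sown in soil pots in a greenhouse and sprayed at 2-3 leaf stage, 2 weeks after sowing. Compound in acetone/tween-80 with methyl oleate concentrate (1.5 L/ha) as synergist. Effect recorded as fresh-weight growth inhibition rate.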

Echinochloa crusgalli = test: Post-emergence test experiment, Echinochloa crusgalli; settings: 1000 g a.i./ha, 3 weeks in greenhouse, fresh weight inhibition
Procedure, shortened: (§1)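 Weed and crop seeds were sown in soil-filled pots, covered with 0.5-2 cm soil and grown in a greenhouse. Plants were sprayed at the 2-3 leaf stage, 2 weeks after sowing. Compounds were in acetone with tween-80 plus methyl oleate emulsible concentrate synergist (1.5 liters per hectare). Fresh weight inhibition was scored after 3 weeks.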

Digitaria sanguinalis = test: Post-emergence test experiment, Digitaria sanguinalis; settings: 1000 g a.i./ha, 3 weeks in greenhouse, fresh weight inhibition
Procedure, shortened: as §1

Compound | Activity level (growth inhibition rate), Abutilon theophrasti Medic. [1] | Activity level (growth inhibition rate), Galium aparine [1] | Activity level (growth inhibition rate), Monochoria Vaginalis [1] | Activity level (growth inhibition rate), Echinochloa crusgalli (Echinochloa crusgalli) | Activity level (growth inhibition rate), Digitaria sanguinalis (Digitaria sanguinalis)
CC(C)C(C)SC(=O)[C@@H](C)Oc1nc(F)c(Cl)c(N)c1Cl (stereo partly shown) [Compound 2-96] | 5 (Level 5: the growth inhibition rate is greater than 85%) | 5 (Level 5: the growth inhibition rate is greater than 85%) | 5 (Level 5: the growth inhibition rate is greater than 85%) | 5 (Level 5: the growth inhibition rate is greater than 85%) | 5 (Level 5: the growth inhibition rate is greater than 85%)
CCC(CC)OC(=O)[C@@H](C)Oc1nc(F)c(Cl)c(N)c1Cl [Compound 2-97] | 5 (Level 5: the growth inhibition rate is greater than 85%) | 5 (Level 5: the growth inhibition rate is greater than 85%) | 5 (Level 5: the growth inhibition rate is greater than 85%) | 5 (Level 5: the growth inhibition rate is greater than 85%) | 5 (Level 5: the growth inhibition rate is greater than 85%)
CCC(CC)SC(=O)[C@@H](C)Oc1nc(F)c(Cl)c(N)c1Cl [Compound 2-98] | 5 (Level 5: the growth inhibition rate is greater than 85%) | 5 (Level 5: the growth inhibition rate is greater than 85%) | 5 (Level 5: the growth inhibition rate is greater than 85%) | 5 (Level 5: the growth inhibition rate is greater than 85%) | 5 (Level 5: the growth inhibition rate is greater than 85%)
CCC(C)(C)OC(=O)C(C)Oc1nc(F)c(Cl)c(N)c1Cl (stereo not shown) [Compound 2-99] | 5 (Level 5: the growth inhibition rate is greater than 85%) | 5 (Level 5: the growth inhibition rate is greater than 85%) | 5 (Level 5: the growth inhibition rate is greater than 85%) | 5 (Level 5: the growth inhibition rate is greater than 85%) | 5 (Level 5: the growth inhibition rate is greater than 85%)
CCC(C)(C)SC(=O)C(C)Oc1nc(F)c(Cl)c(N)c1Cl (stereo not shown) [Compound 2-100] | 5 (Level 5: the growth inhibition rate is greater than 85%) | 5 (Level 5: the growth inhibition rate is greater than 85%) | 5 (Level 5: the growth inhibition rate is greater than 85%) | 5 (Level 5: the growth inhibition rate is greater than 85%) | 5 (Level 5: the growth inhibition rate is greater than 85%)
CCCCCCOC(=O)[C@@H](C)Oc1nc(F)c(Cl)c(N)c1Cl [Compound 2-101] | 5 (Level 5: the growth inhibition rate is greater than 85%) | 5 (Level 5: the growth inhibition rate is greater than 85%) | 5 (Level 5: the growth inhibition rate is greater than 85%) | 5 (Level 5: the growth inhibition rate is greater than 85%) | 5 (Level 5: the growth inhibition rate is greater than 85%)
CCCCCCSC(=O)[C@@H](C)Oc1nc(F)c(Cl)c(N)c1Cl [Compound 2-102] | 5 (Level 5: the growth inhibition rate is greater than 85%) | 5 (Level 5: the growth inhibition rate is greater than 85%) | 5 (Level 5: the growth inhibition rate is greater than 85%) | 5 (Level 5: the growth inhibition rate is greater than 85%) | 5 (Level 5: the growth inhibition rate is greater than 85%)
CCCC(C)CSC(=O)[C@@H](C)Oc1nc(F)c(Cl)c(N)c1Cl (stereo partly shown) [Compound 2-104] | 5 (Level 5: the growth inhibition rate is greater than 85%) | 5 (Level 5: the growth inhibition rate is greater than 85%) | 5 (Level 5: the growth inhibition rate is greater than 85%) | 5 (Level 5: the growth inhibition rate is greater than 85%) | 5 (Level 5: the growth inhibition rate is greater than 85%)
CCC(C)CCOC(=O)[C@@H](C)Oc1nc(F)c(Cl)c(N)c1Cl (stereo partly shown) [Compound 2-105] | 5 (Level 5: the growth inhibition rate is greater than 85%) | 5 (Level 5: the growth inhibition rate is greater than 85%) | 5 (Level 5: the growth inhibition rate is greater than 85%) | 5 (Level 5: the growth inhibition rate is greater than 85%) | 5 (Level 5: the growth inhibition rate is greater than 85%)
CCC(C)CCSC(=O)[C@@H](C)Oc1nc(F)c(Cl)c(N)c1Cl (stereo partly shown) [Compound 2-106] | 5 (Level 5: the growth inhibition rate is greater than 85%) | 5 (Level 5: the growth inhibition rate is greater than 85%) | 5 (Level 5: the growth inhibition rate is greater than 85%) | 5 (Level 5: the growth inhibition rate is greater than 85%) | 5 (Level 5: the growth inhibition rate is greater than 85%)
CC(C)CCCOC(=O)[C@@H](C)Oc1nc(F)c(Cl)c(N)c1Cl [Compound 2-107] | 5 (Level 5: the growth inhibition rate is greater than 85%) | 5 (Level 5: the growth inhibition rate is greater than 85%) | 5 (Level 5: the growth inhibition rate is greater than 85%) | 5 (Level 5: the growth inhibition rate is greater than 85%) | 5 (Level 5: the growth inhibition rate is greater than 85%)
